In patent US20220106304A1, “Transcription Factor BRN2 Inhibitory Compounds as Therapeutics and Methods for Their Use” (The University of British Columbia, priority 2018, published 2022):
pIC50: −log10 of the molar value.

Assays:
[1] = Liver microsome metabolic stability, HLM; format: in vitro ADME; details: HLM (first of two values), 1 μM compound, 0.25 mg/mL protein
Experimental: Potassium phosphate buffer (Kphos) was prepared by adding 0.647 g potassium phosphate monobasic (KH2PO4) and 3.527 g potassium phosphate dibasic ([…]) to 400 mL of Milli-Q water. pH of the buffer was adjusted to 7.4 and volume was made up to 500 mL.
Microsomes (20 mg/mL) were diluted in KH2PO4 buffer to prepare a concentration of 0.357 mg/mL.
Stock solutions of BRN2 inhibitors were prepared in DMSO at a concentration of 1 mM
A stock solution of 3.33 mM NADPH (3.33×) was prepared by dissolving appropriate amount of NADPH in KH2PO4 buffer.
Total Incubation volume: 100 μL
Compound concentration: 1 μM
Protein Concentration: 0.25 mg/mL
An 1120 μL aliquot of Kphos buffer (50 mM, pH 7.4) containing liver microsomes (0.357 mg/mL) were added to individual 2 mL tubes (final concentration 0.25 mg/mL). Test compounds (1 mM) and positive controls were directly spiked into respective tubes to prepare a concentration of 1.428 μM (final concentration 1 μM). From the above mix, 70 μL was added to individual wells of 96 well reaction plates and pre-incubated in a 37° C. water bath for 5 min. All the reactions were initiated by adding 30 μL of 3.33 mM NADPH (final concentration 1 mM). Reactions without NADPH and buffer controls (minus NADPH) at 0 min and 60 min were also incubated to rule out non-NADPH metabolism or chemical instability in the incubation buffer. All reactions were terminated using 100 μL of ice-cold acetonitrile containing internal standard at 0, 5, 15, 30 and 60 min. The plates were centrifuged at 4000 RPM for 15 min and 100 μL aliquots were submitted for analysis by LC-MS/MS.
Samples were monitored for parent compounds disappearance in MRM mode using LC-MS/MS.
The percent remaining of test compounds and positive control in each sample was determined by considering peak area ratio in the 0 minute sample as 100%. The Half-life of compounds in microsomes is calculated by formula:
Half-life (t½) (min)=0.693/k, where k is gradient of line determined from plot of peak area ratio (compound peak area/internal standard peak area) against time.
In vitro intrinsic clearance (CL'int) (units in mL/min/kg) was calculated using the formula.
[formula] • For liver microsomes, scaling factor used was 45 mg microsomal protein per gm liver. • Indicates liver weight (gm) which varies species wise. For mice the liver weights are 90 gm.
Where data is not available “na” is inserted.

42D^ENZR cells = experiment: Cell proliferation (crystal violet), BRN2 expressing 42D^ENZR cells; format: cell-based; details: 42D cells, approximately 72 hours
Experimental: Plate 42DENZR (˜7000 cells per well) and 16D^CRPC (˜5000 cells per well) cells in 96 well plate with a volume of 100 μL per well. • 2. Next day 1 mL aliquots of media are combined with 3× the desired concentration of compounds. The aliquots are vortexed and 50 μL of each 3× concentration is added to the 100 μL of media in each well to give the ix desired concentration.
The following are the desired concentrations:
0, 10 nM, 100 nM, 500 nM, 1 μM, 2.5 μM, 5 μM, 10 μM, 15 μM, […], 30 μM. • 3. Approximately 72 hours later, 17 μL of 10% Glutaraldehyde is added to each well and plates are placed on a shaker for 20-30 minutes. • 4. Media is washed off the fixed cells by slow submersion in a container of water. Then the water is removed by tapping the plate upside down. • 5. 75 μL of Crystal Violet™ solution is added into the 96 well plates and placed on a shaker for ˜30 minutes. • 6. Media is washed off the fixed cells by repeated slow submersion in a container of water and the plates are allowed to dry over-night. • 7. Next day, 75 μL of Sorensen Solution is accurately pipetted into each well. The plates placed on a shaker for ˜30 minutes. • 8. Absorbance is measured in the plate at 590 nm.

FC(F)(F)c1ccc2cc(-c3csc(-c4ccco4)n3)oc2c1 [VPC-18-51, 2-(Furan-2-yl)-4-(6-(trifluoromethyl)benzofuran-2-yl)thiazole]
Met Stab % (60 mins HLM/MLM) ([1]; percent remaining at 60 min, 1 mM NADPH): 42%
half-life at 1 µM ([1]; human, liver microsomes, pH 7.4, read-out: T1/2 in (mins HLM/MLM)): 45 min

Clc1cc2cc(-c3csc(-c4ccc[nH]4)n3)oc2cc1Cl [VPC-18-142]
pIC50 (42D^ENZR cells): 5.60
